Test results: ChEMBL document CHEMBL1201862, “PubChem BioAssay data set” (2004)
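All cell lines were grown in 96-well plates and treated with compound for 48 hours. GI50 is the concentration that inhibits growth by half.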 Activity calls are given as the source filed them. Cut-off read from the data, not from the text of the source: active = GI50 up to about 1.1 µM and inactive = higher.

What was measured:
Assay in all cases: growth of human tumour cells (NCI), 48 h
PC-3 = tested on: PC-3
SN12C = tested on: SN12C
786-0 = tested on: 786-0
MDA-MB-435 = tested on: MDA-MB-435
MDA-MB-231 = tested on: MDA-MB-231
BT-549 = tested on: BT-549
MCF7 = tested on: MCF7
SK-MEL-5 = tested on: SK-MEL-5
T47D = tested on: T47D
KM12 = tested on: KM12
OVCAR-3 = tested on: OVCAR-3
CCRF-CEM = tested on: CCRF-CEM
TK-10 = tested on: TK-10
HCT-116 = tested on: HCT-116
IGROV-1 = tested on: IGROV-1
RXF 393 = tested on: RXF 393
K562 = tested on: K562
A498 = tested on: A498
HOP-92 = tested on: HOP-92

## COC(=O)c1ccc(/C=C2\Oc3cc(O)ccc3C2=O)cc1
PC-3
  GI50: 91.4 µM (inactive)
SN12C
  GI50: 53.8 µM (inactive)
786-0
  GI50: > 100 µM (inactive)
MDA-MB-435
  GI50: > 100 µM (inactive)
MDA-MB-231
  GI50: 65.9 µM (inactive)
BT-549
  GI50: 39.8 µM (inactive)
MCF7
  GI50: 38.5 µM (inactive)
SK-MEL-5
  GI50: 67 µM (inactive)
T47D
  GI50: 54.3 µM (inactive)
KM12
  GI50: 49.3 µM (inactive)
OVCAR-3
  GI50: 53.3 µM (inactive)
CCRF-CEM
  GI50: 38.2 µM (inactive)
TK-10
  GI50: 53 µM (inactive)
HCT-116
  GI50: 63.5 µM (inactive)
IGROV-1
  GI50: > 100 µM (inactive)
RXF 393
  GI50: 27.9 µM (inactive)
K562
  GI50: 47.8 µM (inactive)

## COC(=O)N[C@H](C(=O)O)C(C)O[Si](C)(C)C(C)(C)C (stereo partly drawn)
A498
  GI50: > 100 µM (inactive)
PC-3
  GI50: > 100 µM (inactive)
SN12C
  GI50: > 100 µM (inactive)
786-0
  GI50: > 100 µM (inactive)
MDA-MB-435
  GI50: > 100 µM (inactive)
MDA-MB-231
  GI50: > 100 µM (inactive)
BT-549
  GI50: > 100 µM (inactive)
MCF7
  GI50: > 100 µM (inactive)
SK-MEL-5
  GI50: > 100 µM (inactive)
T47D
  GI50: > 100 µM (inactive)
KM12
  GI50: > 100 µM (inactive)
OVCAR-3
  GI50: 7.08 µM (inactive)
CCRF-CEM
  GI50: > 100 µM (inactive)
TK-10
  GI50: > 100 µM (inactive)
HCT-116
  GI50: > 100 µM (inactive)
IGROV-1
  GI50: > 100 µM (inactive)
RXF 393
  GI50: > 100 µM (inactive)
K562
  GI50: > 100 µM (inactive)

## CC1N=C(c2ccccc2)OC1=O (stereo not drawn)
A498
  GI50: > 100 µM (inactive)
PC-3
  GI50: > 100 µM (inactive)
HOP-92
  GI50: > 100 µM (inactive)
SN12C
  GI50: > 100 µM (inactive)
786-0
  GI50: > 100 µM (inactive)
MDA-MB-435
  GI50: > 100 µM (inactive)
MDA-MB-231
  GI50: > 100 µM (inactive)
BT-549
  GI50: > 100 µM (inactive)
MCF7
  GI50: > 100 µM (inactive)
SK-MEL-5
  GI50: > 100 µM (inactive)
T47D
  GI50: > 100 µM (inactive)
KM12
  GI50: > 100 µM (inactive)
OVCAR-3
  GI50: > 100 µM (inactive)
CCRF-CEM
  GI50: > 100 µM (inactive)
TK-10
  GI50: > 100 µM (inactive)
HCT-116
  GI50: > 100 µM (inactive)
IGROV-1
  GI50: > 100 µM (inactive)
K562
  GI50: > 100 µM (inactive)

## CC1(C)CNC(=O)C2(CCCO2)CNC(C)(C)CNC(=O)C2(CCCO2)CN1 (stereo not drawn)
PC-3
  GI50: > 10 µM (inactive)
HOP-92
  GI50: > 10 µM (inactive)
SN12C
  GI50: > 10 µM (inactive)
786-0
  GI50: > 10 µM (inactive)
MDA-MB-435
  GI50: > 10 µM (inactive)
MDA-MB-231
  GI50: > 10 µM (inactive)
BT-549
  GI50: > 10 µM (inactive)
MCF7
  GI50: > 10 µM (inactive)
SK-MEL-5
  GI50: > 10 µM (inactive)
T47D
  GI50: > 10 µM (inactive)
KM12
  GI50: > 10 µM (inactive)
OVCAR-3
  GI50: > 10 µM (inactive)
CCRF-CEM
  GI50: > 10 µM (inactive)
TK-10
  GI50: > 10 µM (inactive)
HCT-116
  GI50: > 10 µM (inactive)
IGROV-1
  GI50: > 10 µM (inactive)
K562
  GI50: > 10 µM (inactive)

## CCc1nn(CN2CCOCC2)c(=S)n1/N=C/c1ccc(-c2ccc(Cl)cc2)o1
A498
  GI50: > 100 µM (inactive)
PC-3
  GI50: > 100 µM (inactive)
HOP-92
  GI50: > 100 µM (inactive)
786-0
  GI50: > 100 µM (inactive)
MDA-MB-435
  GI50: > 100 µM (inactive)
MDA-MB-231
  GI50: > 100 µM (inactive)
BT-549
  GI50: > 100 µM (inactive)
MCF7
  GI50: > 100 µM (inactive)
SK-MEL-5
  GI50: > 100 µM (inactive)
T47D
  GI50: > 100 µM (inactive)
KM12
  GI50: > 100 µM (inactive)
OVCAR-3
  GI50: > 100 µM (inactive)
TK-10
  GI50: > 100 µM (inactive)
HCT-116
  GI50: > 100 µM (inactive)
IGROV-1
  GI50: > 100 µM (inactive)
RXF 393
  GI50: > 100 µM (inactive)
K562
  GI50: > 100 µM (inactive)

## O=C1C(=Cc2ccccc2O)N=C(c2ccccc2)N1n1c(-c2ccccc2)nc2ccccc2c1=O
A498
  GI50: 21.5 µM (inactive)
PC-3
  GI50: 34 µM (inactive)
SN12C
  GI50: 43 µM (inactive)
786-0
  GI50: 42.1 µM (inactive)
MDA-MB-435
  GI50: 36.8 µM (inactive)
MDA-MB-231
  GI50: 42.2 µM (inactive)
BT-549
  GI50: 28.8 µM (inactive)
MCF7
  GI50: 17.2 µM (inactive)
SK-MEL-5
  GI50: 19.1 µM (inactive)
T47D
  GI50: 26.2 µM (inactive)
KM12
  GI50: 30.3 µM (inactive)
CCRF-CEM
  GI50: 28.4 µM (inactive)
TK-10
  GI50: 50.2 µM (inactive)
HCT-116
  GI50: 32.3 µM (inactive)
IGROV-1
  GI50: 34.4 µM (inactive)
K562
  GI50: 29.6 µM (inactive)

## CN(C)CCNc1ncnc2[nH]c(-c3ccc4ccccc4c3)nc12
PC-3
  GI50: > 100 µM (inactive)
SN12C
  GI50: > 100 µM (inactive)
786-0
  GI50: > 100 µM (inactive)
MDA-MB-435
  GI50: > 100 µM (inactive)
MDA-MB-231
  GI50: > 100 µM (inactive)
BT-549
  GI50: > 100 µM (inactive)
MCF7
  GI50: > 100 µM (inactive)
SK-MEL-5
  GI50: > 100 µM (inactive)
T47D
  GI50: > 100 µM (inactive)
KM12
  GI50: > 100 µM (inactive)
OVCAR-3
  GI50: > 100 µM (inactive)
CCRF-CEM
  GI50: > 100 µM (inactive)
TK-10
  GI50: > 100 µM (inactive)
HCT-116
  GI50: > 100 µM (inactive)
IGROV-1
  GI50: > 100 µM (inactive)
RXF 393
  GI50: > 100 µM (inactive)
K562
  GI50: > 100 µM (inactive)

## CN(C)c1ccc(/C=C2\N=C(c3ccccc3)N(c3nc4c(Cl)cc(Cl)cc4s3)C2=O)cc1
A498
  GI50: 27.4 µM (inactive)
PC-3
  GI50: 32.4 µM (inactive)
HOP-92
  GI50: 24.5 µM (inactive)
SN12C
  GI50: 44 µM (inactive)
786-0
  GI50: 77.1 µM (inactive)
MDA-MB-435
  GI50: 21.2 µM (inactive)
MDA-MB-231
  GI50: 29.7 µM (inactive)
BT-549
  GI50: 54.3 µM (inactive)
MCF7
  GI50: 31.6 µM (inactive)
SK-MEL-5
  GI50: 41.8 µM (inactive)
T47D
  GI50: 52.5 µM (inactive)
KM12
  GI50: 34.2 µM (inactive)
OVCAR-3
  GI50: 64.4 µM (inactive)
CCRF-CEM
  GI50: 0.731 µM (active)
TK-10
  GI50: 85.7 µM (inactive)
HCT-116
  GI50: 35.2 µM (inactive)
IGROV-1
  GI50: 41 µM (inactive)
K562
  GI50: 31.6 µM (inactive)
